Reference: patent publication US11000033B2, “Ketone or oxime compound, and herbicide” (NISSAN CHEMICAL CORPORATION, priority 2014, dated 2021)

What was measured:
Assay type in all cases: in vivo
[1] = test system: directly sowed rice plant; experiment: Test Example 3: effect on crop by foliage application, Wagner pot (symbol b); settings: application herbicide amount 320 g/ha; for b (directly sowed rice plant) effect on crop grade: Table 24
Summary of the method: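 Steps: fill a 1/10000-are Wagner pot with alluvial soil; add water and mix to submerge at 0.1–0.5 cm depth; sow rice plus Echinochloa crus-galli var. crus-galli, Leptochloa chinensis and Cyperus difformis; grow in a 25–30 °C greenhouse.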

Digitaria ciliaris [2] = experiment: Test Example 4: herbicidal effect by soil treatment (symbol F); settings: application herbicide amount 320 g/ha
From the text: (§1) Herbicidal Effect Test by Soil Treatment
(§2) Sterilized diluvial soil was placed in a plastic box having a length of 21 cm, a width of 13 cm, and a depth of 7 cm. Each of the seeds of Digitaria ciliaris, Setaria viridis, Echinochloa crus-galli var. crus-galli, Avena fatua, Alopecurus myosuroides, Lolium multiflorum Lam., Apera spica-venti, Abutilon theophrasti, Amaranthus retroflexus, Chenopodium album, Stellaria media, Galium spurium, Veronica persica, corn, soybean, rice, wheat, beet, and rapeseed was sowed in a spot-like manner and was covered with the soil of a thickness of about 1.5 cm. Subsequently, the emulsion agent of the compound present invention prepared in accordance with Formulation Example 2 was diluted with water so as to be a predetermined herbicide amount and the diluted emulsion agent was uniformly applied to the surface of the soil with a small-size spray. The plastic box was placed in a greenhouse of 25° C. to 30° C. to grow plant. 3 weeks later from the herbicide application, the effect to each plant was investigated in accordance with the criteria of Test Example 1.

[3] = test system: Echinochloa crus-galli var. crus-galli; experiment: Test Example 4: herbicidal effect by soil treatment (symbol H); settings: application herbicide amount 320 g/ha
From the text: as §1, §2

Alopecurus myosuroides = experiment: Test Example 4: herbicidal effect by soil treatment (symbol J); settings: application herbicide amount 320 g/ha
From the text: as §1, §2

Lolium multiflorum Lam. = experiment: Test Example 4: herbicidal effect by soil treatment (symbol K); settings: application herbicide amount 320 g/ha
From the text: as §1, §2

Stellaria media [4] = experiment: Test Example 4: herbicidal effect by soil treatment (symbol P); settings: application herbicide amount 320 g/ha
From the text: as §1, §2

Veronica persica [5] = experiment: Test Example 4: herbicidal effect by soil treatment (symbol R); settings: application herbicide amount 320 g/ha
From the text: as §1, §2

corn = experiment: Test Example 4: effect on crop by soil treatment (symbol c); settings: application herbicide amount 320 g/ha
From the text: as §1
(§3) Sterilized diluvial soil was placed in a plastic box having a length of 21 cm, a width of 13 cm, and a depth of 7 cm. Each of the seeds of Digitaria ciliaris, Setaria viridis, Echinochloa crus-galli var. crus-galli, Avena fatua, Alopecurus myosuroides, Lolium multiflorum Lam., Apera spica-venti, Abutilon theophrasti, Amaranthus retroflexus, Chenopodium album, Stellaria media, Galium spurium, Veronica persica, corn, soybean, rice, wheat, beet, and rapeseed was sowed in a spot-like manner and was covered with the soil of a thickness of about 1.5 cm. […] The plastic box was placed in a greenhouse of 25° C. to 30° C. to grow plant.

soybean = experiment: Test Example 4: effect on crop by soil treatment (symbol d); settings: application herbicide amount 320 g/ha
From the text: as §1, §3

rice = experiment: Test Example 4: effect on crop by soil treatment (symbol b); settings: application herbicide amount 320 g/ha
From the text: as §1, §3

beet [6] = experiment: Test Example 4: effect on crop by soil treatment (symbol f); settings: application herbicide amount 320 g/ha
From the text: as §1, §3

rapeseed = experiment: Test Example 4: effect on crop by soil treatment (symbol g); settings: application herbicide amount 320 g/ha
From the text: as §1, §3

Digitaria ciliaris [7] = experiment: Test Example 5: herbicidal effect by foliage application, plastic box (symbol F); settings: 320 g/ha, 3 weeks after application
Summary of the method: (§4)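 Sowing in sterilized diluvial soil, 14 days' greenhouse growth at 25° C. to 30° C., then uniform small-sprayer foliar application of aqueous emulsion dilution; plants scored three weeks afterwards.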

Setaria viridis = experiment: Test Example 5: herbicidal effect by foliage application, plastic box (symbol G); settings: 320 g/ha, 3 weeks after application
Summary of the method: as §4

Avena fatua = experiment: Test Example 5: herbicidal effect by foliage application, plastic box (symbol I); settings: 320 g/ha, 3 weeks after application
Summary of the method: as §4

Apera spica-venti = experiment: Test Example 5: herbicidal effect by foliage application, plastic box (symbol L); settings: 320 g/ha, 3 weeks after application
Summary of the method: as §4

Abutilon theophrasti = experiment: Test Example 5: herbicidal effect by foliage application, plastic box (symbol M); settings: 320 g/ha, 3 weeks after application
Summary of the method: as §4

Chenopodium album = experiment: Test Example 5: herbicidal effect by foliage application, plastic box (symbol O); settings: 320 g/ha, 3 weeks after application
Summary of the method: as §4

Stellaria media [8] = experiment: Test Example 5: herbicidal effect by foliage application, plastic box (symbol P); settings: 320 g/ha, 3 weeks after application
Summary of the method: as §4

Veronica persica [9] = experiment: Test Example 5: herbicidal effect by foliage application, plastic box (symbol R); settings: 320 g/ha, 3 weeks after application
Summary of the method: as §4

rice plant = experiment: Test Example 5: effect on crop by foliage application, plastic box (symbol b); settings: 320 g/ha, 3 weeks after application
Summary of the method: (§5)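 In a plastic box 7 cm deep filled with sterilized diluvial soil, seeds of crops and weeds such as Digitaria ciliaris, Avena fatua and Amaranthus retroflexus are sown in spots and covered with about 1.5 cm of soil before greenhouse growth at 25–30° C.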

wheat = experiment: Test Example 5: effect on crop by foliage application, plastic box (symbol e); settings: 320 g/ha, 3 weeks after application
Summary of the method: as §5

beet [10] = experiment: Test Example 5: effect on crop by foliage application, plastic box (symbol f); settings: 320 g/ha, 3 weeks after application
Summary of the method: as §5

Galium spurium = experiment: Test Example 5: herbicidal effect by foliage application, plastic box (symbol Q); settings: 320 g/ha, 3 weeks after application
Summary of the method: as §4

SMILES	b (directly sowed rice plant) effect on crop grade [1]	Herbicidal effect grade, F: Digitaria ciliaris (Digitaria ciliaris [2])	Herbicidal effect grade, H: Echinochloa crus-galli var. crus-galli [3]	Herbicidal effect grade, J: Alopecurus myosuroides (Alopecurus myosuroides)	Herbicidal effect grade, K: Lolium multiflorum Lam. (Lolium multiflorum Lam.)	Herbicidal effect grade, R: Veronica persica (Veronica persica [5])	Effect on crop grade, c: corn (corn)	Effect on crop grade, d: soybean (soybean)	Effect on crop grade, b: directly sowed rice plant (rice)	F: Digitaria ciliaris, herbicidal effect grade (Digitaria ciliaris [7])	G: Setaria viridis, herbicidal effect grade (Setaria viridis)	I: Avena fatua, herbicidal effect grade (Avena fatua)	L: Apera spica-venti, herbicidal effect grade (Apera spica-venti)	M: Abutilon theophrasti, herbicidal effect grade (Abutilon theophrasti)	O: Chenopodium album, herbicidal effect grade (Chenopodium album)	P: Stellaria media, herbicidal effect grade (Stellaria media [8])	R: Veronica persica, herbicidal effect grade (Veronica persica [9])	b: directly sowed rice plant, effect on crop grade (rice plant)	e: wheat, effect on crop grade (wheat)	f: beet, effect on crop grade (beet [10])	other results
COC(=O)C(C(=O)C1CC1)C1CC(O)=C(c2c(C)cc(Br)cc2C)C1=O (mixture of isomers) [10-002]	5 (Herbicidal ratio of 90% or more (almost completely withered))	4 (Herbicidal ratio of 70% or higher and lower than 90%)	4 (Herbicidal ratio of 70% or higher and lower than 90%)	0 (Herbicidal ratio of 5% or lower (almost no effect))	4 (Herbicidal ratio of 70% or higher and lower than 90%)	0 (Herbicidal ratio of 5% or lower (almost no effect))	0 (Herbicidal ratio of 5% or lower (almost no effect))	0 (Herbicidal ratio of 5% or lower (almost no effect))	4 (Herbicidal ratio of 70% or higher and lower than 90%)	5 (Herbicidal ratio of 90% or more (almost completely withered))	5 (Herbicidal ratio of 90% or more (almost completely withered))	5 (Herbicidal ratio of 90% or more (almost completely withered))	4 (Herbicidal ratio of 70% or higher and lower than 90%)	0 (Herbicidal ratio of 5% or lower (almost no effect))	0 (Herbicidal ratio of 5% or lower (almost no effect))	0 (Herbicidal ratio of 5% or lower (almost no effect))	0 (Herbicidal ratio of 5% or lower (almost no effect))	4 (Herbicidal ratio of 70% or higher and lower than 90%)	0 (Herbicidal ratio of 5% or lower (almost no effect))	0 (Herbicidal ratio of 5% or lower (almost no effect))	Herbicidal effect grade, P: Stellaria media (Stellaria media [4]): 0 (Herbicidal ratio of 5% or lower (almost no effect)); Effect on crop grade, f: beet (beet [6]): 0 (Herbicidal ratio of 5% or lower (almost no effect)); Effect on crop grade, g: rapeseed (rapeseed): 0 (Herbicidal ratio of 5% or lower (almost no effect))
C=CCOC1=C(c2c(C)cc(C)cc2C)C(=O)C(CC(C)=NOC)C1 (stereo not drawn) [1-007]	–	–	–	–	–	–	–	–	–	0 (Herbicidal ratio of 5% or lower (almost no effect))	0 (Herbicidal ratio of 5% or lower (almost no effect))	3 (Herbicidal ratio of 40% or higher and lower than 70%)	1 (Herbicidal ratio of 5% or higher and lower than 20%)	0 (Herbicidal ratio of 5% or lower (almost no effect))	0 (Herbicidal ratio of 5% or lower (almost no effect))	0 (Herbicidal ratio of 5% or lower (almost no effect))	0 (Herbicidal ratio of 5% or lower (almost no effect))	0 (Herbicidal ratio of 5% or lower (almost no effect))	0 (Herbicidal ratio of 5% or lower (almost no effect))	0 (Herbicidal ratio of 5% or lower (almost no effect))	effect on crop b (directly sowed rice plant), grade 0-5 [1]: 0 (Herbicidal ratio of 5% or lower (almost no effect)); F (Digitaria ciliaris) herbicidal effect grade (Digitaria ciliaris [2]): 0 (Herbicidal ratio of 5% or lower (almost no effect)); H (Echinochloa crus-galli var. crus-galli) herbicidal effect grade [3]: 0 (Herbicidal ratio of 5% or lower (almost no effect)); J (Alopecurus myosuroides) herbicidal effect grade (Alopecurus myosuroides): 0 (Herbicidal ratio of 5% or lower (almost no effect)); K (Lolium multiflorum Lam.) herbicidal effect grade (Lolium multiflorum Lam.): 2 (Herbicidal ratio of 20% or higher and lower than 40%); c (corn) effect on crop grade (corn): 0 (Herbicidal ratio of 5% or lower (almost no effect)); d (soybean) effect on crop grade (soybean): 0 (Herbicidal ratio of 5% or lower (almost no effect)); b (directly sowed rice plant) effect on crop grade (rice): 0 (Herbicidal ratio of 5% or lower (almost no effect)); g (rapeseed) effect on crop grade (rapeseed): 0 (Herbicidal ratio of 5% or lower (almost no effect)); Q: Galium spurium, herbicidal effect grade (Galium spurium): 0 (Herbicidal ratio of 5% or lower (almost no effect))
COCCON=C(CC1CC(O)=C(c2c(C)cc(-n3cc(Cl)cn3)cc2C)C1=O)C1CC1 (stereo not drawn) [9-020]	5 (Herbicidal ratio of 90% or more (almost completely withered))	4 (Herbicidal ratio of 70% or higher and lower than 90%)	0 (Herbicidal ratio of 5% or lower (almost no effect))	3 (Herbicidal ratio of 40% or higher and lower than 70%)	5 (Herbicidal ratio of 90% or more (almost completely withered))	0 (Herbicidal ratio of 5% or lower (almost no effect))	0 (Herbicidal ratio of 5% or lower (almost no effect))	0 (Herbicidal ratio of 5% or lower (almost no effect))	3 (Herbicidal ratio of 40% or higher and lower than 70%)	5 (Herbicidal ratio of 90% or more (almost completely withered))	5 (Herbicidal ratio of 90% or more (almost completely withered))	5 (Herbicidal ratio of 90% or more (almost completely withered))	4 (Herbicidal ratio of 70% or higher and lower than 90%)	4 (Herbicidal ratio of 70% or higher and lower than 90%)	3 (Herbicidal ratio of 40% or higher and lower than 70%)	3 (Herbicidal ratio of 40% or higher and lower than 70%)	3 (Herbicidal ratio of 40% or higher and lower than 70%)	5 (Herbicidal ratio of 90% or more (almost completely withered))	2 (Herbicidal ratio of 20% or higher and lower than 40%)	0 (Herbicidal ratio of 5% or lower (almost no effect))	Effect on crop grade, f: beet (beet [6]): 0 (Herbicidal ratio of 5% or lower (almost no effect)); Effect on crop grade, g: rapeseed (rapeseed): 0 (Herbicidal ratio of 5% or lower (almost no effect))
